Laboratory results reported in patent US6096930A, “Herbicidal cyclohexane-1,3-dione derivatives and their preparation process” (Korea Research Institute of Chemical Technology, priority 1994, dated 2000).
Like-named read-outs stand apart in the source and are kept apart here.

Assays:
Assay type in all cases: in vivo
[1] = system: SAGPY; assay: Herbicidal activity for paddy test
Summary of the method: (§1)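 For paddy conditions, species grew in furrows within pots of sterilized sandy loam soil (115 cm^2 surface area), and efficacy was judged by eye as percent control, with 0 meaning no herbicidal effect and 100 meaning total kill.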

[2] = system: SCPJU; assay: Herbicidal activity for paddy test
Summary of the method: as §1

[3] = system: MOOVA; assay: Herbicidal activity for paddy test
Summary of the method: as §1

[4] = system: ECHOR; assay: Herbicidal activity for paddy test
Summary of the method: as §1

[5] = system: ORYSA; assay: Herbicidal activity for paddy test; settings: for plant injury at 2 g/ha: 0.002 kg/ha; for plant injury at 8 g/ha: 0.008 kg/ha; for plant injury at 31 g/ha: 0.031 kg/ha; for plant injury at 125 g/ha: 0.125 kg/ha; for plant injury at 500 g/ha: 0.500 kg/ha
Summary of the method: as §1

[6] = system: GLXMX; assay: Herbicidal activity, upland test, post-emergence
From the text: (§2) The sterilized sandy loam soil is filled in test pot having a surface area of 348 cm^2 for upland test conditions or 115 cm^2 for paddy test species were planted in furrows.
(§3) The pots for the post-emergent tests were placed in a greenhouse and watered for 9~14 days, then the foliage of test plants was sprayed with a solution of the test compound in a mixture of acetone and water containing a small amount of Tween 20.
(§4) After spraying the plants were kept for one day, then watered regularly for 14 to 21 days, and herbicidal activity data were recorded.
(§5) The herbicidal activity data were taken visually by percent control, wherein 0 signifies no herbicidal effect and 100 signifies complete kill.

[7] = system: BROJA; assay: Herbicidal activity, upland test, post-emergence
From the text: as §2, §3, §4, §5

[8] = system: TRZAW; assay: Herbicidal activity, upland test, post-emergence
From the text: as §2, §3, §4, §5

[9] = system: AESIN; assay: Herbicidal activity, upland test, post-emergence
From the text: as §2, §3, §4, §5

[10] = system: SOLNI; assay: Herbicidal activity, upland test, post-emergence
From the text: as §2, §3, §4, §5

[11] = system: GOSHI; assay: Herbicidal activity, upland test, post-emergence
From the text: as §2, §3, §4, §5

[12] = system: ABUTH; assay: Herbicidal activity, upland test, post-emergence
From the text: as §2, §3, §4, §5

[13] = system: PANDI; assay: Herbicidal activity, upland test, post-emergence
From the text: as §2, §3, §4, §5

[14] = system: SORBI; assay: Herbicidal activity, upland test, post-emergence
From the text: as §2, §3, §4, §5

[15] = system: ECHOR; assay: Herbicidal activity, upland test, post-emergence
From the text: as §2, §3, §4, §5

[16] = system: DIGSA; assay: Herbicidal activity, upland test, post-emergence
From the text: as §2, §3, §4, §5

[17] = system: ORYSA; assay: Herbicidal activity, upland test, post-emergence
From the text: as §2, §3, §4, §5

[18] = system: ZEAMX; assay: Herbicidal activity, upland test, post-emergence
From the text: as §2, §3, §4, §5

[19] = system: GLXMX; assay: Herbicidal activity, upland test, pre-emergence
Procedure: as §2
(§6) For the pre-emergent tests, were sprayed on the soil one day after planting test compound in a mixture of acetone and 7 ml of the water containing up to 0.1% Tween 20.
(§7) The concentration of the test compound in solution was varied to give a range of application rates, generally 4.0 kg/ha and submultiples thereof. The pots were placed in a greenhouse and watered regularly at the soil surface for 21 days and herbicidal effects were visually rated by a percent control.
as §5

[20] = system: GOSHI; assay: Herbicidal activity, upland test, pre-emergence
Procedure: as §2, §6, §7, §5

[21] = system: ABUTH; assay: Herbicidal activity, upland test, pre-emergence
Procedure: as §2, §6, §7, §5

[22] = system: PANDI; assay: Herbicidal activity, upland test, pre-emergence
Procedure: as §2, §6, §7, §5

[23] = system: ORYSA; assay: Herbicidal activity, upland test, pre-emergence
Procedure: as §2, §6, §7, §5

[24] = 3 Leaf, read-out: Herbicidal activity, ORYSA (3 Leaf)
[25] = seed, read-out: Herbicidal activity, ORYSA (seed)

## CCCC(=NOC)C1=C(O)CC(c2c(C)c(C)c3c(c2C)CC(C)(C)C3)CC1=O (stereo not drawn) [Compound 6]
[1]; 0.002 kg/ha
  pest or weed control at 2 g/ha: 0%
[1]; 0.008 kg/ha
  pest or weed control at 8 g/ha: 0%
[1]; 0.031 kg/ha
  pest or weed control at 31 g/ha: 0%
[1]; 0.125 kg/ha
  pest or weed control at 125 g/ha: 0%
[1]; 0.500 kg/ha
  pest or weed control at 500 g/ha: 40%
[2]; 0.002 kg/ha
  pest or weed control at 2 g/ha: 0%
[2]; 0.008 kg/ha
  pest or weed control at 8 g/ha: 0%
[2]; 0.031 kg/ha
  pest or weed control at 31 g/ha: 0%
[2]; 0.125 kg/ha
  pest or weed control at 125 g/ha: 0%
[2]; 0.500 kg/ha
  pest or weed control at 500 g/ha: 0%
[3]; 0.002 kg/ha
  pest or weed control at 2 g/ha: 0%
[3]; 0.008 kg/ha
  pest or weed control at 8 g/ha: 0%
[3]; 0.031 kg/ha
  pest or weed control at 31 g/ha: 0%
[3]; 0.125 kg/ha
  pest or weed control at 125 g/ha: 0%
[3]; 0.500 kg/ha
  pest or weed control at 500 g/ha: 0%
[4]; 0.002 kg/ha
  pest or weed control at 2 g/ha: 0%
[4]; 0.008 kg/ha
  pest or weed control at 8 g/ha: 60%
[4]; 0.031 kg/ha
  pest or weed control at 31 g/ha: 100%
[4]; 0.125 kg/ha
  pest or weed control at 125 g/ha: 100%
[4]; 0.500 kg/ha
  pest or weed control at 500 g/ha: 100%
[5]; [24]
  plant injury at 2 g/ha: 0%
  plant injury at 8 g/ha: 0%
  plant injury at 31 g/ha: 0%
  plant injury at 125 g/ha: 20%
  plant injury at 500 g/ha: 65%
[5]; [25]
  plant injury at 2 g/ha: 0%
  plant injury at 8 g/ha: 0%
  plant injury at 31 g/ha: 100%
  plant injury at 125 g/ha: 100%
  plant injury at 500 g/ha: 100%
[6]; 0.016 kg/ha
  Herbicidal activity, GLXMX: 0 % inhibition
[6]; 0.063 kg/ha
  Herbicidal activity, GLXMX: 0 % inhibition
[6]; 1.000 kg/ha
  Herbicidal activity, GLXMX: 60 % inhibition
[6]; 1.250 kg/ha
  Herbicidal activity, GLXMX: 20 % inhibition
[7]; 0.016 kg/ha
  Herbicidal activity, BROJA: 0 % inhibition
[7]; 0.063 kg/ha
  Herbicidal activity, BROJA: 30 % inhibition
[7]; 1.000 kg/ha
  Herbicidal activity, BROJA: 100 % inhibition
[7]; 1.250 kg/ha
  Herbicidal activity, BROJA: 70 % inhibition
[8]; 0.016 kg/ha
  Herbicidal activity, TRZAW: 0 % inhibition
[8]; 0.063 kg/ha
  Herbicidal activity, TRZAW: 30 % inhibition
[8]; 1.000 kg/ha
  Herbicidal activity, TRZAW: 100 % inhibition
[8]; 1.250 kg/ha
  Herbicidal activity, TRZAW: 50 % inhibition
[9]; 0.016 kg/ha
  Herbicidal activity, AESIN: 0 % inhibition
[9]; 0.063 kg/ha
  Herbicidal activity, AESIN: 0 % inhibition
[9]; 1.000 kg/ha
  Herbicidal activity, AESIN: 20 % inhibition
[9]; 1.250 kg/ha
  Herbicidal activity, AESIN: 0 % inhibition
[10]; 0.016 kg/ha
  Herbicidal activity, SOLNI: 0 % inhibition
[10]; 0.063 kg/ha
  Herbicidal activity, SOLNI: 0 % inhibition
[10]; 1.000 kg/ha
  Herbicidal activity, SOLNI: 30 % inhibition
[10]; 1.250 kg/ha
  Herbicidal activity, SOLNI: 0 % inhibition
[11]; 0.016 kg/ha
  Herbicidal activity, GOSHI: 0 % inhibition
[11]; 0.063 kg/ha
  Herbicidal activity, GOSHI: 30 % inhibition
[11]; 1.000 kg/ha
  Herbicidal activity, GOSHI: 50 % inhibition
[11]; 1.250 kg/ha
  Herbicidal activity, GOSHI: 40 % inhibition
[12]; 0.016 kg/ha
  Herbicidal activity, ABUTH: 0 % inhibition
[12]; 0.063 kg/ha
  Herbicidal activity, ABUTH: 0 % inhibition
[12]; 1.000 kg/ha
  Herbicidal activity, ABUTH: 30 % inhibition
[12]; 1.250 kg/ha
  Herbicidal activity, ABUTH: 0 % inhibition
[13]; 0.016 kg/ha
  Herbicidal activity, PANDI: 40 % inhibition
[13]; 0.063 kg/ha
  Herbicidal activity, PANDI: 100 % inhibition
[13]; 1.000 kg/ha
  Herbicidal activity, PANDI: 100 % inhibition
[13]; 1.250 kg/ha
  Herbicidal activity, PANDI: 100 % inhibition
[14]; 0.016 kg/ha
  Herbicidal activity, SORBI: 0 % inhibition
[14]; 0.063 kg/ha
  Herbicidal activity, SORBI: 30 % inhibition
[14]; 1.000 kg/ha
  Herbicidal activity, SORBI: 70 % inhibition
[14]; 1.250 kg/ha
  Herbicidal activity, SORBI: 50 % inhibition
[15]; 0.016 kg/ha
  Herbicidal activity, ECHOR: 70 % inhibition
[15]; 0.063 kg/ha
  Herbicidal activity, ECHOR: 100 % inhibition
[15]; 1.000 kg/ha
  Herbicidal activity, ECHOR: 100 % inhibition
[15]; 1.250 kg/ha
  Herbicidal activity, ECHOR: 100 % inhibition
[16]; 0.016 kg/ha
  Herbicidal activity, DIGSA: 60 % inhibition
[16]; 0.063 kg/ha
  Herbicidal activity, DIGSA: 100 % inhibition
[16]; 1.000 kg/ha
  Herbicidal activity, DIGSA: 100 % inhibition
[16]; 1.250 kg/ha
  Herbicidal activity, DIGSA: 100 % inhibition
[17]; 0.016 kg/ha
  Herbicidal activity, ORYSA: 0 % inhibition
[17]; 0.063 kg/ha
  Herbicidal activity, ORYSA: 30 % inhibition
[17]; 1.000 kg/ha
  Herbicidal activity, ORYSA: 100 % inhibition
[17]; 1.250 kg/ha
  Herbicidal activity, ORYSA: 70 % inhibition
[18]; 0.016 kg/ha
  Herbicidal activity, ZEAMX: 0 % inhibition
[18]; 0.063 kg/ha
  Herbicidal activity, ZEAMX: 60 % inhibition
[18]; 1.000 kg/ha
  Herbicidal activity, ZEAMX: 100 % inhibition
[18]; 1.250 kg/ha
  Herbicidal activity, ZEAMX: 100 % inhibition
[19]; 0.016 kg/ha
  Herbicidal activity, GLXMX: 0 % inhibition
[19]; 0.063 kg/ha
  Herbicidal activity, GLXMX: 0 % inhibition
[19]; 1.000 kg/ha
  Herbicidal activity, GLXMX: 0 % inhibition
[19]; 1.250 kg/ha
  Herbicidal activity, GLXMX: 0 % inhibition
[20]; 0.016 kg/ha
  Herbicidal activity, GOSHI: 0 % inhibition
[20]; 0.063 kg/ha
  Herbicidal activity, GOSHI: 0 % inhibition
[20]; 1.000 kg/ha
  Herbicidal activity, GOSHI: 0 % inhibition
[20]; 1.250 kg/ha
  Herbicidal activity, GOSHI: 0 % inhibition
[21]; 0.016 kg/ha
  Herbicidal activity, ABUTH: 0 % inhibition
[21]; 0.063 kg/ha
  Herbicidal activity, ABUTH: 0 % inhibition
[21]; 1.000 kg/ha
  Herbicidal activity, ABUTH: 0 % inhibition
[21]; 1.250 kg/ha
  Herbicidal activity, ABUTH: 0 % inhibition
[22]; 0.016 kg/ha
  Herbicidal activity, PANDI: 0 % inhibition
[22]; 0.063 kg/ha
  Herbicidal activity, PANDI: 80 % inhibition
[22]; 1.000 kg/ha
  Herbicidal activity, PANDI: 100 % inhibition
[22]; 1.250 kg/ha
  Herbicidal activity, PANDI: 100 % inhibition
[23]; 0.016 kg/ha
  Herbicidal activity, ORYSA: 0 % inhibition
[23]; 0.063 kg/ha
  Herbicidal activity, ORYSA: 30 % inhibition
[23]; 1.000 kg/ha
  Herbicidal activity, ORYSA: 80 % inhibition
[23]; 1.250 kg/ha
  Herbicidal activity, ORYSA: 30 % inhibition
